We go through 1 compound from paper PMC11500415, “Chemical inhibition of stomatal differentiation by perturbation of the master-regulatory bHLH heterodimer via an ACT-Like domain” (Nature Communications, 2024).

Where two headings read alike, the source gives them in different places.

Test [1] concerns the target T1, MUTE_ACTL (Arabidopsis thaliana, UniProt Q9M8K6).
T1 construct: MUTE-ACTL (114-202); made in house; host or cells: E. coli BL21
In words: BLI direct binding. The note with it: for Kd: MUTE_ACTL. On the set-up: species or system A. thaliana. From the text:
(§1) A. thaliana SCRM (1-494), ΔNSPCH (98-364), MUTE (1-202), ΔNFAMA (190-414), MUTEΔC (1-114), MUTER133A_R134A, MUTEE162A_E163A, MUTER133A_R134A_E162A_E163A, SCRM-ACTL (405-494), MUTE-ACTL (114-202), SPCH-ACTL (285-364), FAMA-ACTL (306-414), MUTE_ACTLR133A_R134A, MUTE_ACTLE162A_E163A, MUTE_ACTLR133A_R134A_E162A_E163A were cloned into pGEX-4T-1 vector with an N-terminal GST tag and a thrombin cleavage sequence. For protein expression, the constructs were transformed into E. coli strain BL21. For each transformant, a single colony was selected and incubated in 10 ml LB liquid media. The overnight-incubated E. coli suspensions were transferred to 1 L LB medium and incubated at 37 °C for around 2 h until the OD600 reached 0.4–0.6. The isopropyl β-D-1-thiogalactopyranoside ([…] of final concentration) was added to the cultures and the strains were incubated at 22 °C for a further 18 h. GST-fused proteins were purified using glutathione agarose resin. The soluble portion of the cell lysate was loaded onto a GST-Sepharose column. Nonspecifically bound proteins were removed by washing the column with 20 mM Tris pH 8.0, 200 mM NaCl. The bound GST-fused protein was eluted with 10 mm glutathione and 20 mM Tris pH 8.0, 200 mM NaCl. The GST-fused proteins were exchanged with phosphate-buffered saline buffer, and then the solution was treated with 50 μg of thrombin for 10–12 h at 16 ^οC. The GST portion of the protein was cleaved during thrombin digestion, and then the whole solution was reloaded onto the glutathione S-transferase column to obtain pure protein. The purified proteins were further purified by gel filtration on a Superdex-200 (GE) column using fast protein liquid chromatography and phosphate buffer (pH 7.2) as the eluent. The purity of the protein was checked by SDS-PAGE. For detailed lists of oligo DNA and plasmid information, see Supplementary Tables 5, 6, respectively.
The binding affinities of SCRM to MUTE / MUTER133A_R134A / MUTEE162A_E163A / MUTER133A_R134A_E162A_E163A in presence and absence of Stomidazolone (3) and its analogues (AYSJ1059 (5) and AYSJ1061 (6)), and Stomidazolone / AYSJ1059 / AYSJ1061 interactions with GST-tagged SCRM, MUTE, SPCH, FAMA, MUTE ΔACTL, MUTE_ACTL, SCRM_ACTL, SPCH_ACTL and FAMA_ACTL, MUTER133A_134A, MUTEE162A_E163A, MUTER133A_R134A_E162A_E163A were measured using the Octet Red96 system (ForteBio, Pall Life Sciences) following the manufacturer’s protocols. The optical probes coated with anti-GST were first loaded with 500 nM GST tagged proteins before kinetic binding analyses. The experiment was performed in 96-well plates maintained at 30 °C. Each well was loaded with 200 μL reaction volume for the experiment. The binding buffer used in these experiments contained 1× PBS supplemented with 2% DMSO, 0.02% Tween20. […] There was no binding of the analytes to the unloaded probes as shown by the control wells. Binding kinetics to all seven concentrations of the analytes were measured simultaneously using default parameters on the instrument. The data were analyzed using the Octet data analysis software. The association and dissociation curves were fit with the 1:1 homogeneous ligand model. The kobs (observed rate constant) values were used to calculate Kd, with steady-state analysis of the direct binding. See Supplementary Table 3 for details.

For test [2], the target named is T1, MUTE_ACTL. In words: ITC direct binding. On the set-up: species or system A. thaliana. The note with it: ITC (Supplementary Fig. 8, Supplementary Table 2).
From the text: as §1
Binding of the small molecule Stomidazolone (3) to SCRM, MUTE, SPCH, FAMA, MUTEΔC, MUTE_ACTL, SCRM_ACTL, SPCH_ACTL and FAMA_ACTL, MUTER133A_R134A, MUTEE162A_E163A, MUTER133A_R134A_E162A_E163A, as well as SCRM binding to MUTE in the presence and absence of Stomidazolone (3) / AYSJ1059 (5) /AYSJ1061 (6) was characterized at 30 °C using a Malvern PEAQ-ITC microcalorimeter. All the protein samples were dialyzed overnight using PBS buffer containing 2% DMSO and 1 mM DTT. Stomidazolone was dissolved in PBS buffer containing 2% DMSO and 1 mM DTT. Titrations were performed by injecting 1 × 0.5-μL and 12 × 3-μL or 1 × 0.75-μL and 18 × 2-μL or 1 × 0.2-μL and 25 × 1.3-μL aliquots of 1 mM Stomidazolone / AYSJ1059 / AYSJ1061 to 5-30 μM of protein in PBS buffer pH 7.4, containing 2% DMSO and 1 mM DTT. All titrations were carried out at least twice. The raw data were corrected using buffer and protein controls and analyzed using the software supplied by the manufacturer. See Supplementary Table 3 for details.

T1 sequence (Q9M8K6 114-202): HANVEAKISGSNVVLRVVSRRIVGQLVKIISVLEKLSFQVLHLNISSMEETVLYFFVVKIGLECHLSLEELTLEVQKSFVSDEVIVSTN

For `O=C1C(c2ccccc2)=NC(NS(=O)(=O)c2ccccc2)(c2ccc(Br)cc2)N1S(=O)(=O)c1ccccc1` (stereo not shown) [AYSJ1061], on MUTE_ACTL [1] (BLI (Supplementary Table 3)), the “binding to MUTE by BLI (in words)” value was “substantially weak binding”. Besides, the Kd on MUTE_ACTL [1] (BLI steady state, read-out: KD (SS)) was found to be 139 ± 9.5 µM; at MUTE_ACTL [1] (BLI, read-out: KD), 135 ± 5.5 µM. In addition, the “binding to MUTE analyzed by ITC (in words)” value on MUTE_ACTL [2] is “no binding”.

Usually Kd stands for a measure of binding affinity in units of concentration.
